Like-named read-outs stand apart in the source and are kept apart here.
Tests used:
FXR [1] = molecular target: T1, FXR (Homo sapiens, UniProt Q96RI1); assay: FXR TR-FRET binding assay (DY246 fluorescent probe); conditions: for inhibition at 0.493 µM: at 493 nM; for IC50: mean ± SE; for inhibition at 0.164 µM: at 164 nM
T1 sequence (Q96RI1 262-486 limits assumed): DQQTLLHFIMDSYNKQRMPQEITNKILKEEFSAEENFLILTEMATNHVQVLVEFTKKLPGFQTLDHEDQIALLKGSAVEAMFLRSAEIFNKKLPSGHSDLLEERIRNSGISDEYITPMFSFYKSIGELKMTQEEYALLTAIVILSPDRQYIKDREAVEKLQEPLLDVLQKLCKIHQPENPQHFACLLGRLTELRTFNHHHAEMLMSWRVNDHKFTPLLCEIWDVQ
Protocol: The FXR TR-FRET binding assay was performed as previously described^23 with modifications. […] The plate was spun down after a brief shake and incubated at room temperature for 20 min. The TR-FRET emission signals at 520 nm and 490 nm for each well was then collected using a PHERAstar plate reader (BMG LABTECH, Cary, N.C.) with an excitation wavelength of 337 nm, 100-μs delay time, and 200-μs integration time. The 520 nm/490 nm ratio from each well was then calculated. […] The % inhibition of tested chemicals at given concentration was calculated based on negative and positive controls using equation 1.

[2] = tested on: GeneBLAzer FXR-UAS-bla HEK 293T cells; conditions: human, 16 h
Protocol: To examine if certain chemical antagonistic effect was caused by cytotoxicity, the same GeneBLAzer FXR cells were used to perform cytotoxicity assay. This assay was set up like the FXR agonistic assay, with the exception of signal reading. Instead of detecting the reporter activities, CellTiter-Glo® assay was used to detect cell viability. DMSO with cells or without cells group were served as negative (0% Inhibition) or positive (100% Inhibition), respectively.
Cytotoxicity assays were performed side-by-side with the FXR agonistic assay using GeneBLAzer FXR-UAS-bla HEK 293T cells with CellTiter-Glo® Luminescent Cell Viability Assay reagent (Promega). Briefly, cells were maintained in DMEM supplemented with 10% dialyzed FBS, 0.1 mM non-essential amino acids, 25 mM HEPES, 100 μg/ml of hygromycin B, 100 μg/ml of zeocin, 100 units/ml penicillin and 100 μg/ml streptomycin in regular tissue culture flasks. […] As a positive control, the wells in column 24 of each plate were filled with 30 μL assay medium along with 0.5% DMSO. The final DMSO concentration was 0.5% in each assay well. After a 16 h incubation in a cell culture incubator at 37° C., the cell plates were cooled at room temperature for 20 min and then CellTiter-Glo® reagent 20 μl/well was added followed by an incubation for 20 min in the dark to allow the development of optimal luminescence signal. The luminescence signal from each well in plates was collected with an Envision plate reader equipped with Ultra-sensitive Luminescence detector. The DMSO group and no cell group served as negative (0% activation) and positive (100% activation) controls, respectively. The % inhibition was calculated using equation 4 below.

FXR [3] = molecular target: T1, FXR; assay: GeneBLAzer FXR cell-based antagonistic assay (in presence of 400 nM GW4064); parameters: the Gal4 DBD was fused to the LBD of FXR in this assay; host or cells: GeneBLAzer FXR-UAS-bla HEK 293T cells; conditions: for IC50: with 400 nM GW4064, read-out: GB FXR Cell Anta. IC50
Protocol: A GeneBLAzer FXR cell-based assay was used to investigate the cellular activities of the 1,3,4-trisubstituted-pyrazol-4-carboxamide analogs. The assay detects the levels of a […] reporter controlled by a promoter containing the binding site of the DNA binding domain (DBD) of the GAL4 transcription factor; the Gal4 DBD was fused to the LBD of FXR in this assay.^35
FXR transactivation assays were performed using GeneBLAzer FXR-UAS-bla HEK 293T cells (Invitrogen). Cells were maintained according to the manufacturer's instructions. […] Plates were then incubated in dark for 90 min at room temperature before measuring the fluorescent emissions at 460 nm and 535 nm (using excitation at 400 nm) with an Envision plate reader with bottom read capacity. After background signal subtraction for individual emission channels, emission signals at 460 and 535 nm from each well were used to determine the ratio of 460 nm/535 nm. […] The % activation was calculated using equation 2.
The % inhibition was calculated using equation 3.

[4] = read-out: FXR TR-FRET Binding % Inh.
[5] = read-out: GB FXR Cell Anta. % Inh.

Structure (SMILES) | IC50 (FXR [1]) [nM] | inhibition at 40 µM (FXR [3]; [5]) [%] | IC50 (FXR [3]) [nM] | inhibition at 0.164 µM (FXR [1]; [4]) [%] | FXR antagonistic activity, SAR statement in words (FXR [3]) | other results
Cc1ccc(-c2nn(-c3ccc(F)cc3)cc2C(=O)Nc2ccc(C)c(S(=O)(=O)N3CCOCC3)c2)cc1 [Compound 4a, 1-(4-fluorophenyl)-N-(4-methyl-3-(morpholinosulfonyl)phenyl)-3-p-tolyl-1H-pyrarazole-4-carboxamide] | 24.3 ± 0.6 | 72 ± 2.2 | 2490 ± 6 |  |  | inhibition at 0.493 µM (FXR [1]; [4]): 95 ± 1.2%; GB FXR Cell Cyto % Inh. ([2]; 40 μM): 18.5 ± 1.0%
Cc1ccc(-c2nn(-c3cccc(Cl)c3)cc2C(=O)Nc2ccc(C)c(S(=O)(=O)N3CCOCC3)c2)cc1 [Compound 4b, 1-(3-Chlorophenyl)-N-(4-methyl-3-(morpholinosulfonyl)phenyl)-3-(p-tolyl)-1H-pyrazole-4-carboxamide] | 10.4 ± 0.9 | 60.6 ± 0.9 | 5910 ± 150 | 99.3 ± 1.1 |  | 
Cc1ccc(-c2nn(-c3ccc(Cl)cc3Cl)cc2C(=O)Nc2ccc(C)c(S(=O)(=O)N3CCOCC3)c2)cc1 [Compound 4c, 1-(2,4-Dichlorophenyl)-N-(4-methyl-3-(morpholinosulfonyl)phenyl)-3-(p-tolyl)-1H-pyrazole-4-carboxamide] | 14.1 ± 0.3 | 89.9 ± 1.9 | 1240 ± 120 | 120 ± 7.8 |  | 
Cc1ccc(-c2nn(-c3cccc(C(F)(F)F)c3)cc2C(=O)Nc2ccc(C)c(S(=O)(=O)N3CCOCC3)c2)cc1 [Compound 4d, N-(4-Methyl-3-(morpholinosulfonyl)phenyl)-3-(p-tolyl)-1-(3-(trifluoromethyl)phenyl)-1H-pyrazole-4-carboxamide] | 23.9 ± 2.1 | 54.8 ± 1.3 | 22300 ± 1140 | 77.5 ± 4.3 |  | GB FXR Cell Cyto % Inh. ([2]; 40 μM): 7.3 ± 0.2%
Cc1ccc(-c2nn(-c3nc4ccccc4s3)cc2C(=O)Nc2ccc(C)c(S(=O)(=O)N3CCOCC3)c2)cc1 [Compound 4e, 1-(Benzo[d]thiazol-2-yl)-N-(4-methyl-3-(morpholinosulfonyl)phenyl)-3-(p-tolyl)-1H-pyrazole-4-carboxamide] | 17.7 ± 0.4 | 79.1 ± 2.4 | 7910 ± 1160 | 102 ± 2.8 |  | fold improvement of activity compared to Z26476908 (FXR [1]; text says FXR antagonistic activity / potency in hFXR, figures fit TR-FRET IC50): 3 fold; GB FXR Cell Cyto % Inh. ([2]; 13.3 μM): 11.5 ± 0.2 (13.3 μM) %
Cc1ccc(-c2nn(C(C)C)cc2C(=O)Nc2ccc(C)c(S(=O)(=O)N3CCOCC3)c2)cc1 [Compound 4f, 1-Isopropyl-N-(4-methyl-3-(morpholinosulfonyl)phenyl)-3-(p-tolyl)-1H-pyrazole-4-carboxamide] | 49.1 ± 9.9 | 99.1 ± 4.4 | 1690 ± 180 |  | retention of the antagonistic activity | inhibition at 4.4 µM (FXR [1]; [4]): 131 ± 3.8%
CCCCn1cc(C(=O)Nc2ccc(C)c(S(=O)(=O)N3CCOCC3)c2)c(-c2ccc(C)cc2)n1 [Compound 4g, 1-Butyl-N-(4-methyl-3-(morpholinosulfonyl)phenyl)-3-(p-tolyl)-1H-pyrazole-4-carboxamide] | 52.5 ± 4.1 |  | 11510 ± 70 |  | retention of the antagonistic activity | inhibition at 1.5 µM (FXR [1]; [4]): 130.1 ± 0.7%; GB FXR Cell Cyto % Inh. ([2]; 4.4 μM): 10.3 ± 0.3%; inhibition at 20 µM (FXR [3]; [5]): 97.9 ± 8.1%

Continued, in another order:

IC50 (FXR [1]) [nM] | inhibition at 40 µM (FXR [3]; [5]) [%] | IC50 (FXR [3]) [nM] | inhibition at 0.164 µM (FXR [1]; [4]) [%] | FXR antagonistic activity, SAR statement in words (FXR [3]) | Structure (SMILES) | other results
10.2 ± 1.6 | 84.4 ± 4.1 | 844 ± 10.3 | 97.8 ± 1.2 | enhanced antagonistic activity | Cc1ccc(-c2nn(Cc3ccc4ccccc4c3)cc2C(=O)Nc2ccc(C)c(S(=O)(=O)N3CCOCC3)c2)cc1 [Compound 4h, N-(4-Methyl-3-(morpholinosulfonyl)phenyl)-1-(naphthalen-2-ylmethyl)-3-(p-tolyl)-1H-pyrazole-4-carboxamide] | GB FXR Cell Cyto % Inh. ([2]; 4.4 μM): 7.9 ± 0.3 (4.4 μM) %
76.9 ± 2.7 | 100 ± 3.2 | 849 ± 69 |  |  | Cc1ccc(-c2nn(CC3CC3)cc2C(=O)Nc2ccc(C)c(S(=O)(=O)N3CCOCC3)c2)cc1 [Compound 4i, 1-(Cyclopropylmethyl)-N-(4-methyl-3-(morpholinosulfonyl)phenyl)-3-(p-tolyl)-1H-pyrazole-4-carboxamide] | fold decrease of activity for hFXR compared to Z26476908 (FXR [1]): 2 fold; inhibition at 1.5 µM (FXR [1]; [4]): 105 ± 4.9%
18.4 ± 1.2 | 93.4 ± 3.9 | 515 ± 25.4 | 99.2 ± 6.4 |  | Cc1ccc(-c2nn(Cc3cccc(C(F)(F)F)c3)cc2C(=O)Nc2ccc(C)c(S(=O)(=O)N3CCOCC3)c2)cc1 [Compound 4k, N-(4-methyl-3-(morpholinosulfonyl)phenyl)-3-(p-tolyl)-1-(3-(trifluoromethyl)benzyl)-1H-pyrazole-4-carboxamide] | 
130 ± 16 | 97.6 ± 3.7 | 2610 ± 290 |  |  | Cc1ccc(-c2nn(CCCCO)cc2C(=O)Nc2ccc(C)c(S(=O)(=O)N3CCOCC3)c2)cc1 [Compound 4l, 1-(4-Hydroxybutyl)-N-(4-methyl-3-(morpholinosulfonyl)phenyl)-3-(p-tolyl)-1H-pyrazole-4-carboxamide] | inhibition at 0.493 µM (FXR [1]; [4]): 89.3 ± 0.1%; GB FXR Cell Cyto % Inh. ([2]; 40 μM): 5.9 ± 0.2%
199 ± 21.2 | 99.2 ± 2.7 | 3110 ± 580 |  | decreased the potency and affinity | COc1cccc(Cn2cc(C(=O)Nc3ccc(C)c(S(=O)(=O)N4CCOCC4)c3)c(C(C)C)n2)c1 [Compound 4m, 3-Isopropyl-1-(3-methoxybenzyl)-N-(4-methyl-3-(morpholinosulfonyl)phenyl)-1H-pyrazole-4-carboxamide] | inhibition at 4.4 µM (FXR [1]; [4]): 101 ± 5.6%
160 ± 22.6 | 97.8 ± 1.5 | 3490 ± 640 |  |  | COc1cccc(-c2nn(C(C)C)cc2C(=O)Nc2ccc(C)c(S(=O)(=O)N3CCOCC3)c2)c1 [Compound 4n, 1-Isopropyl-3-(3-methoxyphenyl)-N-(4-methyl-3-(morpholinosulfonyl)phenyl)-1H-pyrazole-4-carboxamide] | inhibition at 13.3 µM (FXR [1]; [4]): 150 ± 6.9%; GB FXR Cell Cyto % Inh. ([2]; 4.4 μM): 10.8 ± 0.2%
42.8 ± 0.5 | 89.4 ± 4.2 | 1240 ± 90 |  | slightly decreased antagonistic activity | COc1cccc(Cn2cc(C(=O)Nc3ccc(C)c(S(=O)(=O)N4CCOCC4)c3)c(-c3cccc(OC)c3)n2)c1 [Compound 4o, 1-(3-Methoxybenzyl)-3-(3-methoxyphenyl)-N-(4-methyl-3-(morpholinosulfonyl)phenyl)-1H-pyrazole-4-carboxamide] | inhibition at 0.493 µM (FXR [1]; [4]): 114 ± 3.3%
30.9 ± 3.6 | 97.6 ± 0.9 | 592.7 ± 3 | 109 ± 3.6 |  | COc1cccc(Cn2cc(C(=O)Nc3ccc(C)c(S(=O)(=O)N4CCOCC4)c3)c(-c3ccc(C(F)(F)F)cc3)n2)c1 [Compound 4q, 1-(3-Methoxybenzyl)-N-(4-methyl-3-(morpholinosulfonyl)phenyl)-3-(4-(trifluoromethyl)phenyl)-1H-pyrazole-4-carboxamide] | 
3420 ± 190 | 62.5 ± 0.8 | 29600 ± 1750 |  | loss of potency | COCCc1nn(C(C)C)cc1C(=O)Nc1ccc(C)c(S(=O)(=O)N2CCOCC2)c1 [Compound 4r] | inhibition at 40 µM (FXR [1]; at 40 μM, read-out: FXR TR-FRET Binding % Inh.): 98.2 ± 3.8%
390 ± 9.4 | 95.9 ± 2.4 | 11100 ± 640 |  | loss of potency | COCCc1nn(Cc2cccc(OC)c2)cc1C(=O)Nc1ccc(C)c(S(=O)(=O)N2CCOCC2)c1 [Compound 4s] | inhibition at 13.3 µM (FXR [1]; [4]): 113.5 ± 0.8%
 | 3.1 ± 0.1 |  |  |  | COc1cccc(Cn2cc(CNc3ccc(C)c(S(=O)(=O)N4CCOCC4)c3)c(-c3cccc(OC)c3)n2)c1 [Compound 9-3, N-((1-(3-Methoxybenzyl)-3-(3-methoxyphenyl)-1H-pyrazol-4-yl)methyl)-4-methyl-3-(morpholinosulfonyl)aniline] | inhibition at 1.48 µM (FXR [1]; at 1.48 μM, read-out: FXR TR-FRET Binding % Inh.): 39.8 ± 1.8%
